Assay results as given in paper PMC9452538, “The antimicrobial peptide LI14 combats multidrug-resistant bacterial infections” (Communications Biology, 2022).
≈ marks a conversion by molar mass, not a printed value. Bridge positions count the residues as written; N and C are the ends. Ends that are not written are not given here. Peptide text beside a SMILES is read from it.

How the values were obtained:
[1] = test system: MDR E. coli B2; experiment: Checkerboard assay with LI14; format: cell-based, Escherichia coli; conditions: for FIC index: antibiotic in combination with LI14, checkerboard 8 × 8, 18 h, ≤0.5 = synergy; for MICa of antibiotic: in the absence of LI14; for MICb of antibiotic: in the presence of ¼ MIC of LI14; for Potentiation: antibiotic potentiation in the presence of ¼ MIC of LI14
Description: (§1) Through checkerboard assay using two-fold serially diluted drugs (8 × 8 matrix), we evaluated the synergistic effects of LI14 with different mechanisms of antibiotics. The absorbance of cultures at 600 nm was determined by a Microplate reader after 18 h of incubation with (1.5 × 10^6 CFUs/mL) bacterial suspension. The FIC index (FICI) was calculated by performing two biological replicates for each combination. The formula is as follows: FIC index = FICIa + FICIb = MICab/MICa + MICba/Mb. An FIC index of ≤0.5 indicates synergy.
(§2) a/bMICs of antibiotics in the absence or presence of ¼ MIC of LI14.
(§3) cDegree of antibiotics potentiation in the presence of ¼ MIC of LI14.
(§4) –, none of potentiation activity.

[2] = test system: MRSA T144; experiment: Checkerboard assay with LI14; format: cell-based, Staphylococcus aureus; conditions: for FIC index: antibiotic in combination with LI14, checkerboard; for MICa of antibiotic: in the absence of LI14; for MICb of antibiotic / Potentiation: in the presence of ¼ MIC of LI14
Description: as §1, §2, §3, §4

[3] = test system: MRSA T144; experiment: Neutropenic mouse thigh infection model; format: in vivo, CD-1 mice; conditions: AMP 20 mg/kg i.p., 48 h
Description: Female CD-1 mice (n = 6 biologically independent animals per group) were first given cyclophosphamide (two consecutive injections of 150 and 100 mg kg^−1 at 4 and 1 day before infection) to construct neutropenia models. The mice’s right thighs were then injected with 100 μL MRSA T144 or E. coli B2 suspensions (10^5 CFUs per mouse). Post-infection of 1 h, 100 μL LI14 peptide (10 or 20 mg/kg), ampicillin/rifampicin (20 mg/kg) or a combination of LI14 with ampicillin/ rifampicin (10 + 20 mg/kg) were given by intraperitoneal injection. All mice were euthanized 48 h after drug administration, and right thigh muscle tissue was removed aseptically, homogenized, serially diluted, and plated on MHA to qualify bacterial loads after overnight incubation at 37 °C.

[4] = test system: sensitive E. coli ATCC 25922; experiment: Checkerboard assay with LI14; format: cell-based, Escherichia coli; conditions: for FIC index: antibiotic in combination with LI14, checkerboard; for MICa of antibiotic: in the absence of LI14; for MICb of antibiotic / Potentiation: in the presence of ¼ MIC of LI14
Description: as §1, §2, §3, §4

[5] = test system: MRSA T144; experiment: microbe, parasite or virus in culture; format: cell-based, Staphylococcus aureus; set-up: Antibacterial activity of LI14 derivates: unit not given here; conditions: MRSA T144; unit not given
Description: (§5) An antimicrobial activity study was conducted on all peptides against a panel of laboratory bacteria, including ATCC source and clinical isolates with resistance determinants. According to CLSI2021 guidelines, we tested the minimum inhibitory concentrations (MICs) of peptides using standard broth micro-dilutions. Briefly, bacteria grown to exponential phase were diluted in 1:1000 to MHB, subsequently, equivalent amounts of bacterial suspension (1.5 × 10^6 CFUs/mL) were mixed with different concentrations of peptides in a sterilized 96-well microtiter plate (Corning).

[6] = test system: S. aureus ATCC 29213; experiment: microbe, parasite or virus in culture; format: cell-based, Staphylococcus aureus; set-up: Antibacterial activity of LI14 derivates: unit not given here; conditions: S. aureus 29213; unit not given
Description: as §5

[7] = test system: E. coli ATCC 25922; experiment: microbe, parasite or virus in culture; format: cell-based, Escherichia coli; set-up: Antibacterial activity of LI14 derivates: unit not given here; conditions: E. coli 25922; unit not given
Description: as §5

[8] = test system: E. coli B2 (blaNDM-5 + mcr-1); experiment: microbe, parasite or virus in culture; format: cell-based, Escherichia coli; set-up: Antibacterial activity of LI14 derivates: unit not given here; conditions: E. coli B2; unit not given
Description: as §5

[9] = test system: MRSA T144; format: cell-based, Staphylococcus aureus; conditions: T144
Description: MRSA T144 and E. coli B2 in the exponential growth phase were incubated with LI14 peptide supplemented with 10 mM Na^+, K^+, Mg^2+, 10% Dulbecco’s modified Eagle medium (DMEM), and 10% fetal bovine serum (FBS) for 16–18 h. The stability of LI14 was evaluated by the change of its antibacterial activity under different conditions.
LI14 were preincubated for 1 h at various temperatures (40–121 °C), pH (2–12), and proteases (pepsin, trypsin, and papain, final concentration 1 mg/mL). […] Following the incubation with the proteases, the leftover protease was precipitated with acetonitrile and removed by centrifugation at 3000 × g, followed by a MIC test.
Supplementary Table 4 Thermal, pH, salts and protease stability of AMPs against
MRSA T144 and E. coli B2 (MIC, μg/mL).
Treatment MRSA T144 E. coli B2

| Compound | Antibacterial activity of LI14 derivates [5] | Antibacterial activity of LI14 derivates [6] | Antibacterial activity of LI14 derivates [7] | Antibacterial activity of LI14 derivates [8] | also measured |
| --- | --- | --- | --- | --- | --- |
| CC1(C)S[C@@H]2[C@H](NC(=O)[C@H](N)c3ccccc3)C(=O)N2[C@H]1C(=O)O [Ampicillin] | – | – | – | – | FIC index [1]: 2; MICa of antibiotic [1]: > 128 µg/mL; MICb of antibiotic [1]: > 128 µg/mL; FIC index [2]: 0.078; MICa of antibiotic [2]: 64 µg/mL; MICb of antibiotic [2]: 1 µg/mL; Potentiation [2]: 64 fold; Bacterial load in thigh ([3]; animal 1): 7.62 Log10CFUs/thigh; Bacterial load in thigh ([3]; animal 2): 7.65 Log10CFUs/thigh; Bacterial load in thigh ([3]; animal 3): 8.00 Log10CFUs/thigh; Bacterial load in thigh ([3]; animal 4): 8.03 Log10CFUs/thigh; Bacterial load in thigh ([3]; animal 5): 7.34 Log10CFUs/thigh; Bacterial load in thigh ([3]; animal 6): 7.15 Log10CFUs/thigh |
| C[C@H]1c2cccc(O)c2C(=O)C2=C(O)[C@]3(O)C(=O)C(C(N)=O)=C(O)[C@@H](N(C)C)[C@@H]3[C@@H](O)[C@@H]21 [Doxycycline] | – | – | – | – | FIC index [1]: 0.25; Potentiation [1]: 8 fold; MICa of antibiotic [1]: 32 µg/mL; MICb of antibiotic [1]: 4 µg/mL; FIC index [4]: 0.25; MICa of antibiotic [4]: 0.5 µg/mL; MICb of antibiotic [4]: 0.063 µg/mL; Potentiation [4]: 8 fold; FIC index [2]: 0.188; MICa of antibiotic [2]: 16 µg/mL; MICb of antibiotic [2]: 1 µg/mL; Potentiation [2]: 16 fold |
| CC[C@H](C)[C@H](NC(=O)[C@H](CCCNC(=N)N)NC(=O)[C@@H]1CSSC[C@H](NC(=O)[C@H](CC(C)C)NC(=O)[C@H](CCCCN)NC(=O)[C@H](CCCCN)NC(=O)[C@@H](N)CC(C)C)C(=O)N[C@@H](CCCNC(=N)N)C(=O)N[C@@H]([C@@H](C)CC)C(=O)N[C@@H](CC(C)C)C(=O)N[C@@H](CCCCN)C(=O)N[C@@H](CCCCN)C(=O)N[C@@H](CC(C)C)C(=O)N1)C(N)=O [LI14 (S-S)] (H-LKKLCRILKKLCRI-NH2; disulfide 5-12 (inferred)) | 4 | 4 | 8 | 4 | MIC [9]: 4 µg/mL (≈ 2.32 µM) |
| CN[C@H](CC(C)C)C(=O)N[C@H]1C(=O)N[C@@H](CC(N)=O)C(=O)N[C@H]2C(=O)N[C@H]3C(=O)N[C@H](C(=O)N[C@H](C(=O)O)c4cc(O)cc(O)c4-c4cc3ccc4O)[C@H](O)c3ccc(c(Cl)c3)Oc3cc2cc(c3O[C@@H]2O[C@H](CO)[C@@H](O)[C@H](O)[C@H]2O[C@H]2C[C@](C)(N)[C@H](O)[C@H](C)O2)Oc2ccc(cc2Cl)[C@H]1O [Vancomycin] | – | – | – | – | FIC index [1]: 0.078; Potentiation [1]: 64 fold; MICa of antibiotic [1]: 128 µg/mL; MICb of antibiotic [1]: 2 µg/mL; FIC index [4]: 0.375; MICa of antibiotic [4]: 64 µg/mL; MICb of antibiotic [4]: 8 µg/mL; Potentiation [4]: 8 fold; FIC index [2]: 2.0; MICa of antibiotic [2]: 0.5 µg/mL; MICb of antibiotic [2]: 0.5 µg/mL |
| AKKLCRILKKLCRI-NH2 [LI14-A1, Ala substitute of LI14, position 1] | 64 | 16 | 16 | 4 | – |
| LAKLCRILKKLCRI-NH2 [LI14-A2, Ala substitute of LI14, position 2] | 16 | 8 | 8 | 4 | – |
| LKALCRILKKLCRI-NH2 [LI14-A3, Ala substitute of LI14, position 3] | 8 | 8-16 | 16 | 8 | – |
| LKKACRILKKLCRI-NH2 [LI14-A4, Ala substitute of LI14, position 4] | 64 | 64 | 16-32 | 8 | – |
| LKKLARILKKLCRI-NH2 [LI14-A5] | 16 | 16 | 4 | 4 | – |
| LKKLCAILKKLCRI-NH2 [LI14-A6, Ala substitute of LI14, Arg at position 6] | > 128 | > 128 | 128 | 32 | – |
| LKKLCRALKKLCRI-NH2 [LI14-A7, Ala substitute of LI14, position 7] | 64 | 64 | 32 | 16 | – |
| LKKLCRIAKKLCRI-NH2 [LI14-A8, Ala substitute of LI14, position 8] | 64 | 128 | 16 | 8 | – |
| LKKLCRILAKLCRI-NH2 [LI14-A9, Ala substitute of LI14, position 9] | 16 | 16 | 8-16 | 4 | – |
| LKKLCRILKALCRI-NH2 [LI14-A10, Ala substitute of LI14, position 10] | 16 | 16-32 | 16-32 | 8 | – |
| LKKLCRILKKACRI-NH2 [LI14-A11, Ala substitute of LI14, position 11] | 64 | 64 | 16 | 8 | – |
| LKKLCRILKKLARI-NH2 [LI14-A12] | 16 | 8 | 2 | 4 | – |
| LKKLCRILKKLCAI-NH2 [LI14-A13, Ala substitute of LI14, position 13] | 16 | 16 | 8 | 4 | – |
| LKKLCRILKKLCRA-NH2 [LI14-A14, Ala substitute of LI14, position 14] | 32 | 16 | 16 | 4 | – |
